Test system: NOMO1
Experiment: cell viability relative to DMSO control; higher = less cytotoxic
Conditions: 48 h
Summary of the method: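 Three leukemia lines were tested: NOMO1 and SEM at 500 cells/well and P12-Ichikawa at 1000 cells/well. Each was adapted for at least four passages in each medium and seeded in 5 μl in 1536-well plates, and library compounds in DMSO were pin-dosed from 47 μM to 0.79 nM in 11 threefold steps. After 48 h at 37°C, CellTiter-Glo One luminescence was read. Viability is a percentage relative to DMSO wells on each plate, with cell-free wells as background.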

[1] = HPLM + 10% dialyzed FBS, 0.000781 µM
[2] = HPLM + 10% dialyzed FBS, 0.00234 µM
[3] = HPLM + 10% dialyzed FBS, 0.00702 µM
[4] = HPLM + 10% dialyzed FBS, 0.0211 µM
[5] = HPLM + 10% dialyzed FBS, 0.0632 µM
[6] = HPLM + 10% dialyzed FBS, 0.19 µM
[7] = HPLM + 10% dialyzed FBS, 0.569 µM
[8] = HPLM + 10% dialyzed FBS, 1.71 µM
[9] = HPLM + 10% dialyzed FBS, 5.12 µM
[10] = HPLM + 10% dialyzed FBS, 15.4 µM
[11] = HPLM + 10% dialyzed FBS, 46.1 µM
[12] = RPMI 5 mM glucose + 10% FBS, 0.000781 µM
[13] = RPMI 5 mM glucose + 10% FBS, 0.00234 µM
[14] = RPMI 5 mM glucose + 10% FBS, 0.00702 µM
[15] = RPMI 5 mM glucose + 10% FBS, 0.0211 µM
[16] = RPMI 5 mM glucose + 10% FBS, 0.0632 µM
[17] = RPMI 5 mM glucose + 10% FBS, 0.19 µM
[18] = RPMI 5 mM glucose + 10% FBS, 0.569 µM
[19] = RPMI 5 mM glucose + 10% FBS, 1.71 µM
[20] = RPMI 5 mM glucose + 10% FBS, 5.12 µM
[21] = RPMI 5 mM glucose + 10% FBS, 15.4 µM
[22] = RPMI 5 mM glucose + 10% FBS, 46.1 µM
[23] = RPMI 5 mM glucose + 10% dialyzed FBS, 0.000781 µM
[24] = RPMI 5 mM glucose + 10% dialyzed FBS, 0.00234 µM
[25] = RPMI 5 mM glucose + 10% dialyzed FBS, 0.00702 µM
[26] = RPMI 5 mM glucose + 10% dialyzed FBS, 0.0211 µM
[27] = RPMI 5 mM glucose + 10% dialyzed FBS, 0.0632 µM
[28] = RPMI 5 mM glucose + 10% dialyzed FBS, 0.19 µM
[29] = RPMI 5 mM glucose + 10% dialyzed FBS, 0.569 µM
[30] = RPMI 5 mM glucose + 10% dialyzed FBS, 1.71 µM
[31] = RPMI 5 mM glucose + 10% dialyzed FBS, 5.12 µM
[32] = RPMI 5 mM glucose + 10% dialyzed FBS, 15.4 µM
[33] = RPMI 5 mM glucose + 10% dialyzed FBS, 46.1 µM

SMILES | cell viability [1] [%] | cell viability [2] [%] | cell viability [3] [%] | cell viability [4] [%] | cell viability [5] [%] | cell viability [6] [%] | cell viability [7] [%] | cell viability [8] [%] | cell viability [9] [%] | cell viability [10] [%] | cell viability [11] [%] | cell viability [12] [%] | cell viability [13] [%] | cell viability [14] [%] | cell viability [15] [%] | cell viability [16] [%] | cell viability [17] [%] | cell viability [18] [%] | cell viability [19] [%] | cell viability [20] [%] | cell viability [21] [%] | cell viability [22] [%] | cell viability [23] [%] | cell viability [24] [%] | cell viability [25] [%] | cell viability [26] [%] | cell viability [27] [%] | cell viability [28] [%] | cell viability [29] [%] | cell viability [30] [%] | cell viability [31] [%] | cell viability [32] [%] | cell viability [33] [%]
COc1cc([C@@H]2c3cc4c(cc3[C@@H](O)C3COC(=O)C32)OCO4)cc(OC)c1O (stereo partly drawn) | 88.8 | 100 | 101 | 37 | 94.3 | 53.1 | 37.9 | 45.9 | 30.5 | 30.3 | 28.2 | 81.3 | 95.6 | 85.7 | 17.6 | 92 | 82.7 | 20.5 | 22.1 | 19.7 | 20.3 | 19.6 | 88.1 | 95.3 | 91.5 | 32.1 | 90.8 | 73.3 | 25.7 | 26.2 | 22.9 | 23 | 22.3
Cc1n[nH]c2ccc(-c3cncc(OC[C@@H](N)Cc4c[nH]c5ccccc45)c3)cc12 |  |  |  |  |  |  |  |  |  |  |  | 108 | 114 | 116 | 118 | 117 | 77.4 | 92.6 | 33.2 | 8.24 | 1.64 | 1.13 | 104 | 112 | 93.1 | 94.6 | 93.1 | 63.5 | 63.6 | 29.6 | 5.35 | 1.27 | 0.733
CN(C)[C@H]\1[C@@H]2[C@@H](O)[C@H]3\C(=C(O)/[C@]2(O)C(=O)\C(=C1O)C(N)=O)C(=O)C4=C(C=CC=C4O)[C@@]3(C)O | 134 | 117 | 117 | 138 | 127 | 131 | 130 | 108 | 113 | 104 | 30.7 | 112 | 131 | 120 | 135 | 123 | 126 | 122 | 117 | 113 | 119 | 37.1 | 117 | 128 | 117 | 122 | 119 | 128 | 123 | 136 | 105 | 104 | 30.1
C=C1C(=O)O[C@@H]2[C@H]3O[C@]3(C)CC/C=C(\C)CC[C@@H]12 | 110 | 117 | 110 | 115 | 117 | 142 | 114 | 93.8 | 15.9 | 14.9 | 3.29 | 115 | 121 | 116 | 113 | 112 | 108 | 106 | 102 | 46.4 | 5.46 | 3.54 | 98.1 | 103 | 104 | 113 | 114 | 124 | 112 | 99.1 | 62.3 | 6.1 | 3.17
CC1(C)CCC(=C(\C1)C2=CC=C(Cl)C=C2)/CN3CCN(CC3)C4=CC(=C(C=C4)C(=O)N[S+]([O-])(=O)C5=CC=C(NCC6CCOCC6)C(=C5)[N+]([O-])=O)OC7=CN=C8[NH]C=CC8=C7 | 103 | 110 | 95.8 | 91.9 | 113 | 71.8 | 63.2 | 55.3 | 55.1 | 45.8 | 39 | 93.7 | 84.4 | 99.3 | 89.4 | 85.4 | 76.2 | 61.3 | 62.7 | 63.2 | 43 | 33.6 | 97 | 95 | 96.2 | 76.7 | 66.4 | 57.7 | 49 | 38.2 | 42.9 | 28 | 23.9
CC(C)C[C@@H](C(=O)N[C@H](C(=O)OC1CCCC1)c1ccccc1)[C@H](O)C(=O)NO | 107 | 114 | 112 | 119 | 126 | 107 | 104 | 122 | 103 | 96.2 | 33.6 | 111 | 102 | 117 | 117 | 103 | 107 | 103 | 99.3 | 99 | 92.6 | 13 | 114 | 114 | 122 | 122 | 100 | 119 | 102 | 118 | 106 | 91.2 | 16
CCOC\1=C(/C(=O)NC2=CC=C(OC3=C(Cl)C(=NC=C3)N)C(=C2)F)C(=O)N(\C=C1)C4=CC=C(F)C=C4 | 86.9 | 96.1 | 99.3 | 96.1 | 102 | 106 | 91.6 | 75.6 | 75.1 | 70.9 | 39.1 | 99.8 | 102 | 104 | 90.4 | 100 | 96.6 | 93.5 | 88.7 | 90 | 92 | 51.9 | 111 | 96.1 | 92.2 | 94.7 | 95.3 | 96.8 | 89.1 | 95.8 | 100 | 74.7 | 52.7
Oc1ccc(C2CNCCc3c2cc(O)c(O)c3Cl)cc1 (stereo not drawn) | 91.8 | 106 | 93.7 | 106 | 107 | 101 | 85.3 | 106 | 115 | 103 | 115 | 86 | 90.1 | 81.7 | 96.5 | 93.6 | 80.7 | 90.7 | 96.3 | 85.8 | 90.3 | 87.4 | 84.1 | 95.9 | 98.2 | 95.6 | 99.9 | 94.3 | 95.7 | 93.4 | 95.2 | 101 | 88.5
CNC(=O)c1cc(Oc2ccc(NC(=O)Nc3ccc(Cl)c(C(F)(F)F)c3)c(F)c2)ccn1 | 81.7 | 96.4 | 112 | 107 | 105 | 104 | 109 | 105 | 73.6 | 77.1 | 70.6 | 86.5 | 103 | 94.8 | 108 | 97.1 | 94.3 | 95.6 | 86.2 | 85.4 | 83.4 | 69.7 | 88 | 94.8 | 89.8 | 92.4 | 98.5 | 109 | 104 | 97.9 | 80.3 | 82.2 | 73.6
NC(=O)Cc1cccc(C(=O)c2ccccc2)c1N | 79.5 | 98.2 | 122 | 95.4 | 108 | 109 | 110 | 102 | 108 | 96.8 | 102 | 92.3 | 101 | 88.4 | 91.2 | 96.8 | 88 | 84.7 | 98.8 | 85.2 | 93.7 | 81.9 | 97.4 | 87.3 | 96.1 | 82.7 | 101 | 98.3 | 91.6 | 86.9 | 95.6 | 77.8 | 88.1
CN1CCN(CC1)C/2=N/C3=CC=CC=C3NC4=C2C=C(C)S4 | 94.5 | 101 | 102 | 109 | 110 | 96.1 | 93.5 | 86.3 | 86.6 | 75.5 | 77.1 | 89.8 | 85.5 | 80.5 | 88.5 | 100 | 82.4 | 96.7 | 83.9 | 86.1 | 82 | 97.1 | 86.1 | 72.9 | 78.6 | 85 | 88.9 | 86.9 | 99.3 | 89.4 | 76.2 | 69.7 | 81.2
Clc1ccc(C(Cn2ccnc2)OCc2ccc(Sc3ccccc3)cc2)c(Cl)c1 (stereo not drawn) | 126 | 101 | 124 | 120 | 146 | 109 | 126 | 107 | 109 | 98.8 | 104 | 99.2 | 108 | 106 | 111 | 111 | 125 | 104 | 103 | 118 | 70.9 | 63.8 | 111 | 123 | 116 | 112 | 116 | 125 | 134 | 104 | 124 | 88.9 | 59.8
C[C@]12CCC(=O)C(O)=C1CC[C@@H]1[C@@H]2CC[C@]2(C)C(=O)CC[C@@H]12 |  |  |  |  |  |  |  |  |  |  |  | 123 | 114 | 105 | 123 | 129 | 110 | 128 | 104 | 107 | 98.9 | 95 |  |  |  |  |  |  |  |  |  |  | 
O=C(O)CCCc1ccc(N(CCCl)CCCl)cc1 | 111 | 119 | 119 | 143 | 118 | 151 | 109 | 134 | 138 | 123 | 86.4 | 115 | 110 | 134 | 135 | 127 | 132 | 146 | 132 | 141 | 135 | 61.4 | 119 | 125 | 131 | 125 | 130 | 125 | 129 | 108 | 152 | 141 | 63.9
O=C1N\N=C(\C[C@@H]2CCN(C2)C(=O)C3CC3)N1C4=CC=C(C=C4)C5=CC=C6OC=CC6=C5 | 99.4 | 89 | 90.1 | 94.5 | 94.7 | 99 | 92 | 109 | 94.4 | 73.9 | 92.2 | 78.2 | 77.4 | 87.3 | 77.6 | 90 | 79.9 | 95.3 | 82.3 | 85.6 | 81.3 | 80.5 | 85.5 | 86.8 | 75.5 | 82.5 | 80.5 | 81.6 | 85.4 | 82.3 | 86 | 75.5 | 87.7
NC(=O)c1ncn([C@@H]2O[C@H](CO)[C@@H](O)[C@H]2O)c1N | 127 | 111 | 96 | 136 | 111 | 121 | 123 | 123 | 126 | 115 | 83 |  |  |  |  |  |  |  |  |  |  |  |  |  |  |  |  |  |  |  |  |  | 

Reference: the supplement of paper PMC11451515
